# Assay results taken from a melting point compilation (Tetko et al.; mined from patent text by program, amines drawn as free bases though some values may be those of a salt).
row,Compound,melting point
1,Cc1cc(-c2c(F)cc3c(=O)c(C(=O)O)cn4c3c2OC[C@@H]4C)cc(C)n1,305 to 308 °C
2,NCCN1CCC(=C2c3ccccc3C=Cc3ccccc32)CC1,102 °C
3,c1cc2c(ccc3[nH]c4c(c32)CNCC4)s1,190 °C
4,CS(=O)(=O)N1CCC=CCC1,95 to 96 °C
5,O=C(Nc1ccc(Cl)cn1)c1oc2ccc(C(=O)N3CCOCC3)cc2c1NC(=O)[C@H]1CC[C@H](N2CCCC2=O)CC1,253 to 255 °C
6,O=C(O)CN=C(O)c1ccc(C(O)=NCC(=O)O)c2c(C(=O)O)ccc(C(=O)O)c12,> 300 °C
7,Cc1csc(N)c1S(N)(=O)=O,142 to 144 °C
8,CCC#CCOc1cc(C=O)ccc1OC,38 to 39 °C
9,CC1(C)NC(=O)CN1C(=O)CNC(=O)CN1CC(O)CC1=O (stereo not given),227 to 229 °C
10,CCCCCc1ccc(NC2=NCCS2)cc1,77 to 78 °C
11,CC(=O)Nc1ccc(C2CN(C)Cc3c(Cl)cc(Cl)cc32)cc1 (stereo not given),205 to 206 °C
12,COc1ccc(OCC(=O)O)c(OC)c1OC,102 to 104 °C
13,CC[Si](CC)(CC)c1ccccc1S(=O)(=O)NC(=O)Nc1nc(OC)cc(OC)n1,136 °C
14,COc1cc(C(O)(C(F)(F)F)C(F)(F)F)cc(Br)c1NS(C)(=O)=O,38 to 41 °C
15,C[C@H]1Cn2c(=S)[nH]c3cccc(c32)CN1CC1CC1,197 °C
16,O=C1NCc2c(-c3ccccc3)cccc2N1C1CCCCC1,229 to 231 °C
17,NNC(=O)c1cnc2n(c1=O)CCC2,180 to 181 °C

row,Compound,melting point
1,CON1CCC(C2NC(=O)C(c3c(C)cc(C)cc3C)=C2O)CC1 (stereo not given),206 to 209 °C
2,CSc1cccc(Oc2ncc(F)cc2C(=O)N[C@H]2CC[C@@H](CO)CC2)c1,123 to 126 °C
3,O=C(NC1CCCCC1)NS(=O)(=O)c1ccc(CCNC(=O)N2CCc3ccccc3C2=O)cc1,197 to 198 °C
4,O=Cc1cc(-c2ccc(F)cc2Cl)ccc1OC(F)(F)F,64 °C
5,CCC(C)(C)O[C@H]1COC[C@H](NC(=O)c2nccc(OC)c2O)C(=O)O[C@@H](C)[C@@H]1OCC(C)C,138 to 140 °C
6,CCOC1CCC2(C)C(=CCC3C4CCC(=O)C4(C)CCC32)C1 (stereo not given),146 to 147 °C
7,COc1cc(OC)c2c(C)c(CCN3CCN(c4ccccc4)CC3)c(=O)oc2c1,112 to 114 °C
8,Cn1c(Br)nc2c1C(=O)N1CCN=C1N2Cc1ccc(Cl)cc1,206 to 207 °C
9,CCCCCC1OCc2cc(C(=O)O)ccc2O1 (stereo not given),148 °C
10,COc1ccc(CNc2cc3c(Nc4ccc(Cl)c(Cl)c4)ncnc3cn2)cc1,209 to 211 °C
11,CCCc1nc2c(N)nc(C)c(C)c2n1CCCCCS(=O)(=O)c1ccc(C(F)(F)F)cc1,172 to 174 °C
12,CNC(=O)[C@H](Cc1ccc(OC)cc1)NC(=O)[C@H](CC(C)C)N[C@H](CCC(=O)NCc1ccccc1)C(=O)O,104 to 108 °C
13,O=C(Cc1ccccc1)Nc1ccnc(NC(=O)NCc2ccccn2)c1,219 to 220 °C
14,COc1cnc(CCl)nc1O,87 °C
15,Cc1c(O)c2c(c(C)c1NC(=O)CC(C)(C)C)[C@@H](c1ccc(C(C)C)cc1)CO2,181 to 182 °C
16,Cc1ccccc1NS(=O)(=O)c1ccc(N2CCNC2=O)cc1,209 to 210 °C

# The remaining lines, values ahead:
row,melting point,Compound
1,124 to 126 °C,COC(=O)CNC(=O)n1ccc(O)cc1=O
2,214 to 216 °C,NC1=c2c3c(ccc2=CCS1)CCCN3
3,103 to 105 °C,CC(C)Nc1nc2cc(Cl)c(Cl)cc2n1[C@H]1O[C@@H](C)[C@H](O)[C@@H]1O
4,97 to 100 °C,CC(=CCc1c(C)nc(N)nc1Cl)c1cc(Cl)ccc1Cl
5,141 to 142 °C,CC(=O)NCc1ccc(CN2CCN(c3ccc(F)cc3)CC2)cc1Cl
6,129 to 131 °C,O=C(O)COc1cccc2c1OCc1sc(SC(c3ccccc3)c3ccccc3)nc1-2
7,110 to 111 °C,NC(C(=O)c1ccccc1)[N+](=O)[O-] (stereo not given)
8,128 °C,Cc1ccc(Nc2cc(NCc3ccccc3)c(C(=O)O)cc2S(N)(=O)=O)cc1
9,152 °C,COP(=O)(Cc1ccc(-c2nc3ccccc3s2)nc1)OC
10,110 to 112 °C,O=C(Cl)CCCCCCCBr
11,139 to 140 °C,"CCCCCCCCOC(C)c1ccc(-c2ccc(C(=O)O)cc2)cc1 (single isomer, unassigned; (+))"
12,87 to 89 °C,CN1C(=O)C2(C(=O)N(Cc3ccccn3)c3ccccc32)c2cc3c(cc21)OCCO3 (stereo not given)
13,158 to 160 °C,Nc1ccc(NC(=O)N2CCc3cc(S(=O)(=O)N4CC(c5ccccc5)NC4=O)ccc32)cc1 (stereo not given)
14,155 to 158 °C,N#CC(C#N)CC(=O)c1ccc(Cl)s1
15,98 to 101 °C,CCCCN(CCCC)S(=O)(=O)NC(=O)Nc1c(C(C)C)cccc1C(C)C
16,177 to 178 °C,OCc1cc(C=CCN2Cc3ccccc3C2)ccc1O
17,76 to 86 °C,CS(=O)(=O)N[C@@H]1CCCC[C@H]1Nc1nc(Nc2ccc3c(c2)CN(CCO)CCS3)ncc1Cl
